The NIST ThermoML archive (doi:10.1021/acs.jced.8b00713)

Details: Liquid; for viscosity: Vibrating wire viscometry; for mass density: Vibrating tube method

FC(F)(F)/C=C\C(F)(F)F [(Z)-1,1,1,4,4,4-hexafluorobut-2-ene]
Details	mass density [kg/m3]	viscosity [mPa·s]
253.14 K, 15000 kPa	–	0.7477
253.14 K, 20000 kPa	–	0.7916
253.15 K, 100 kPa	–	0.6315
253.15 K, 5000 kPa	–	0.6695
253.15 K, 25000 kPa	–	0.8337
253.15 K, 30100 kPa	–	0.871
253.16 K, 1000 kPa	–	0.6387
253.16 K, 2000 kPa	–	0.647
253.16 K, 10000 kPa	–	0.7114
253.16 K, 40000 kPa	–	0.9576
263.14 K, 2000 kPa	–	0.5721
263.14 K, 5000 kPa	–	0.5916
263.14 K, 30000 kPa	–	0.7644
263.15 K, 100 kPa	–	0.5599
263.15 K, 1000 kPa	–	0.5656
263.15 K, 10000 kPa	–	0.6247
263.15 K, 15000 kPa	–	0.6579
263.15 K, 20000 kPa	–	0.6906
263.16 K, 25000 kPa	–	0.7286
263.16 K, 40000 kPa	–	0.8352
273.13 K, 100 kPa	–	0.493
273.13 K, 10000 kPa	–	0.5526
273.14 K, 1000 kPa	–	0.4975
273.14 K, 15000 kPa	–	0.584
273.14 K, 25000 kPa	–	0.643
273.14 K, 29700 kPa	–	0.6776
273.15 K, 5000 kPa	–	0.5227
273.15 K, 20000 kPa	–	0.6131
273.16 K, 2000 kPa	–	0.5035
273.16 K, 40000 kPa	–	0.7422
283.14 K, 15000 kPa	–	0.5206
283.14 K, 20000 kPa	–	0.547
283.15 K, 100 kPa	1402.57	–
283.15 K, 1000 kPa	1405.16	–
283.15 K, 2000 kPa	1408.09	0.446
283.15 K, 5000 kPa	1416.4	0.462
283.15 K, 10000 kPa	1429.39	0.49
283.15 K, 15000 kPa	1441.21	–
283.15 K, 20000 kPa	1452.25	–
283.15 K, 25000 kPa	1462.46	0.5731
283.15 K, 30000 kPa	1472	0.6009
283.15 K, 40000 kPa	1489.73	0.6578
283.15 K, 50000 kPa	1505.53	–
283.15 K, 60000 kPa	1520.01	–
283.15 K, 80000 kPa	1545.15	–
283.15 K, 100000 kPa	1566.76	–
283.16 K, 100 kPa	–	0.4357
283.17 K, 1000 kPa	–	0.4423
293.15 K, 100 kPa	1377.12	–
293.15 K, 1000 kPa	1380.09	0.3924
293.15 K, 2000 kPa	1383.27	0.3978
293.15 K, 5000 kPa	1392.34	–
293.15 K, 10000 kPa	1406.41	0.4385
293.15 K, 15000 kPa	1419.13	–
293.15 K, 15100 kPa	–	0.4651
293.15 K, 20000 kPa	1430.86	–
293.15 K, 25000 kPa	1441.76	0.5151
293.15 K, 30000 kPa	1451.97	0.5414
293.15 K, 40000 kPa	–	0.5919
293.15 K, 60000 kPa	1501.97	–
293.15 K, 80010 kPa	1528.17	–
293.15 K, 99990 kPa	1550.16	–
293.16 K, 200 kPa	–	0.388
293.16 K, 5000 kPa	–	0.4135
293.16 K, 20000 kPa	–	0.4904
293.16 K, 40000 kPa	1470.38	–
293.16 K, 50000 kPa	1486.98	–
303.14 K, 20000 kPa	–	0.441
303.15 K, 100 kPa	1351.47	–
303.15 K, 200 kPa	–	0.3454
303.15 K, 1000 kPa	1354.72	0.3494
303.15 K, 5000 kPa	–	0.3692
303.15 K, 10000 kPa	1383.63	–
303.15 K, 15000 kPa	1397.49	0.4173
303.15 K, 25000 kPa	1421.76	0.4647
303.15 K, 30000 kPa	1432.55	0.4879
303.15 K, 40000 kPa	–	0.5357
303.15 K, 50000 kPa	1469.43	–
303.15 K, 60000 kPa	1485.09	–
303.15 K, 80000 kPa	1512.19	–
303.15 K, 100010 kPa	1535.09	–
303.16 K, 2000 kPa	1358.24	0.3548
303.16 K, 5000 kPa	1368.33	–
303.16 K, 20000 kPa	1410.02	–
303.16 K, 40000 kPa	1452.02	–
303.17 K, 10000 kPa	–	0.3938
313.14 K, 1000 kPa	1327.46	–
313.14 K, 100010 kPa	1519.55	–
313.15 K, 500 kPa	1325.41	0.31
313.15 K, 1000 kPa	–	0.3121
313.15 K, 2000 kPa	1331.4	0.3173
313.15 K, 5000 kPa	1342.64	0.3312
313.15 K, 10000 kPa	1359.5	–
313.15 K, 15000 kPa	1374.49	0.3776
313.15 K, 20000 kPa	1388.16	0.3989
313.15 K, 25000 kPa	1400.64	0.421
313.15 K, 30000 kPa	1412.04	0.4431
313.15 K, 40000 kPa	1432.78	0.4866
313.15 K, 80010 kPa	1495.94	–
313.16 K, 10000 kPa	–	0.3543
313.16 K, 50000 kPa	1451.06	–
313.16 K, 60000 kPa	1467.37	–
323.14 K, 5000 kPa	1317.21	–
323.14 K, 10000 kPa	1335.83	–
323.14 K, 20000 kPa	–	0.3632
323.15 K, 500 kPa	1297.83	–
323.15 K, 1000 kPa	1300.12	–
323.15 K, 5000 kPa	–	0.2981
323.15 K, 10000 kPa	–	0.322
323.15 K, 15000 kPa	1352.25	0.3425
323.15 K, 20000 kPa	1366.96	–
323.15 K, 25000 kPa	1380.35	0.3839
323.15 K, 30000 kPa	1392.69	0.4043
323.15 K, 40000 kPa	1414.6	–
323.15 K, 50000 kPa	1433.91	–
323.15 K, 80010 kPa	1480.77	–
323.15 K, 100010 kPa	1505.41	–
323.16 K, 500 kPa	–	0.2776
323.16 K, 1000 kPa	–	0.28
323.16 K, 2000 kPa	1304.59	0.2844
323.16 K, 40000 kPa	–	0.445
323.16 K, 60000 kPa	1451.12	–
333.14 K, 500 kPa	–	0.2497
333.15 K, 1000 kPa	1271.96	0.2521
333.15 K, 5000 kPa	1291.31	0.2705
333.15 K, 10000 kPa	–	0.2917
333.15 K, 15000 kPa	–	0.3126
333.15 K, 20000 kPa	1346	0.3321
333.15 K, 25000 kPa	1360.41	0.3512
333.15 K, 30000 kPa	1373.57	0.3741
333.15 K, 40000 kPa	1396.93	0.41
333.15 K, 50000 kPa	1417.34	–
333.15 K, 60000 kPa	1435.25	–
333.15 K, 80000 kPa	1466.47	–
333.15 K, 100000 kPa	1492.09	–
333.16 K, 500 kPa	1269.32	–
333.16 K, 2000 kPa	1277.07	0.2568
333.16 K, 10000 kPa	1312.03	–
333.16 K, 15000 kPa	1330.02	–
343.15 K, 1000 kPa	–	0.2262
343.15 K, 2000 kPa	1248.57	0.2308
343.15 K, 5000 kPa	–	0.2443
343.15 K, 10000 kPa	–	0.2663
343.15 K, 15000 kPa	1307.63	0.2864
343.15 K, 20000 kPa	–	0.3054
343.15 K, 25000 kPa	–	0.3246
343.15 K, 30000 kPa	–	0.3429
343.15 K, 40000 kPa	1379.44	0.3794
343.15 K, 50000 kPa	1400.93	–
343.15 K, 60000 kPa	1419.91	–
343.15 K, 80000 kPa	1452.33	–
343.15 K, 100000 kPa	1478.79	–
343.16 K, 500 kPa	1239.61	0.224
343.16 K, 1000 kPa	1242.66	–
343.16 K, 5000 kPa	1264.73	–
343.16 K, 10000 kPa	1287.86	–
343.16 K, 20000 kPa	1324.98	–
343.16 K, 25000 kPa	1340.52	–
343.16 K, 30000 kPa	1354.59	–
353.14 K, 2000 kPa	–	0.2104
353.15 K, 1000 kPa	1211.33	–
353.15 K, 2000 kPa	1218.18	–
353.15 K, 5000 kPa	–	0.221
353.15 K, 10000 kPa	–	0.2419
353.15 K, 15000 kPa	1284.42	0.2623
353.15 K, 20000 kPa	–	0.2801
353.15 K, 25000 kPa	1320.02	–
353.15 K, 30000 kPa	1335.13	0.3157
353.15 K, 40000 kPa	1361.5	0.3504
353.15 K, 50000 kPa	1384.21	–
353.15 K, 60000 kPa	1404.05	–
353.15 K, 80010 kPa	1438.01	–
353.15 K, 100000 kPa	1465.73	–
353.16 K, 1000 kPa	–	0.2057
353.16 K, 5000 kPa	1236.75	–
353.16 K, 10000 kPa	1262.64	–
353.16 K, 20000 kPa	1303.28	–
353.16 K, 25000 kPa	–	0.2983
363.15 K, 1000 kPa	1177.46	–
363.15 K, 10000 kPa	1236.32	–
363.15 K, 25000 kPa	1298.98	–
363.15 K, 30000 kPa	1315.14	–
363.15 K, 60000 kPa	1387.96	–
363.15 K, 79990 kPa	1423.19	–
363.16 K, 2000 kPa	1185.52	–
363.16 K, 5000 kPa	1207.05	–
363.16 K, 15000 kPa	1260.38	–
363.16 K, 20000 kPa	1280.92	–
363.16 K, 40000 kPa	1343.17	–
363.16 K, 50000 kPa	1367.09	–
363.16 K, 100000 kPa	1451.81	–
373.15 K, 1000 kPa	1140.74	–
373.15 K, 5000 kPa	1175.78	–
373.15 K, 10020 kPa	1209.06	–
373.15 K, 15000 kPa	1235.47	–
373.15 K, 25000 kPa	1277.24	–
373.15 K, 30000 kPa	1294.44	–
373.15 K, 50000 kPa	1349.23	–
373.15 K, 60000 kPa	1370.99	–
373.15 K, 80010 kPa	1407.73	–
373.15 K, 100010 kPa	1437.36	–
373.16 K, 2000 kPa	1150.47	–
373.16 K, 20020 kPa	1257.86	–
373.16 K, 40000 kPa	1324.14	–
